The source of these data is ChEMBL document CHEMBL1201862, “PubChem BioAssay data set” (2004).

Several values for one entry are separate records, joined by “and”; a condition that tells them apart may be missing. Identical values can stand only once.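 Where inhibition never reached the appropriate level, the endpoint shown equals the highest concentration tested. Otherwise, values were interpolated linearly from a five-concentration, 48-hour dose response in 96-well plates. GI50: concentration for 50% inhibition of growth.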 Activity calls are given as the source filed them. Cut-off read from the data, not from the text of the source: active = GI50 up to about 1.1 µM and inactive = higher. Some results are limits rather than exact numbers.

Holding throughout (test): growth of human tumour cells (NCI), 48 h
The test system of assay [1] is 786-0.
Assay [2] concerns A498.
The subject of assay [3] is ACHN.
For assay [4], the system named is CAKI-1.
Assay [5] concerns HCT-116.
Assay [6] concerns HCT-15.
The subject of assay [7] is HOP-62.
Assay [8] concerns IGROV-1.
In assay [9] the test system is K562.
The test system of assay [10] is KM12.
In assay [11] the test system is MDA-MB-435.
Assay [12] deals with MDA-N.
For assay [13], the system named is NCI-H460.
The subject of assay [14] is OVCAR-5.
For assay [15], the system named is RPMI-8226.
The subject of assay [16] is SK-MEL-5.
In assay [17] the test system is SN12C.
Assay [18] relates to TK-10.

Turning to `C=CC(C)(C)n1cc(C2=C(O)C(=O)C(c3cn(C(C)(C)C=C)c4ccccc34)=C(O)C2=O)c2ccccc21`, the GI50 in assay [1] is 3.05 µM (inactive); in [2], 5.97 µM (inactive); in [3] it was 3.69 µM (inactive); in assay [4], 2.34 µM (inactive); in [5], 3.27 µM (inactive); in [6], 1.75 µM. Moreover, the GI50 in [7] is 2.32 µM (inactive); in assay [8] it was 2.7 µM (inactive); in [9], 5.62 µM (inactive); in assay [10], 3.37 µM (inactive); in assay [11], 3.79 µM (inactive); in [12] it was 1.95 µM (inactive). The GI50 in [13] was 2.84 µM (inactive); in [14] it was 1.89 µM (inactive); in assay [15] it was 4.44 µM (inactive); in assay [16] it was 2.08 µM (inactive); in [17], 2.5 µM (inactive); in assay [18], 3.18 µM (inactive).

Consider `Cc1ccc(/C=C2/N/C(=N\N=C/C(O)C(O)C(O)CO)NC2=O)cc1` (stereo not drawn), for which the GI50 in [1] is > 100 µM (inactive); in assay [2], > 100 µM (inactive); in [3] it was > 100 µM (inactive); in [4], > 100 µM (inactive); in [5], > 100 µM (inactive); in assay [6], 89.9 µM and 79.1 µM. The GI50 in [7] was > 100 µM (inactive); in assay [8], > 100 µM (inactive); in assay [9], 55.5 µM (inactive) and 47.8 µM (inactive); in assay [10] it was > 100 µM (inactive); in assay [11] it was > 100 µM (inactive); in assay [12] it was > 100 µM (inactive). Besides, the GI50 in assay [13], in assay [14], in assay [15], in [16], in assay [17] and in [18] was > 100 µM (inactive) in each case.

On to `COc1ccc(/N=N/C(=N\c2ccc(Cl)cc2)c2ccc(N(CCC#N)CCC#N)cc2)cc1`, for which the GI50 in assay [1] is 83.8 µM (inactive); in [2], 10.4 µM (inactive); in assay [3] it was 19.9 µM (inactive); in assay [4], 27.2 µM (inactive); in assay [5], 43.9 µM (inactive); in [6] it was 2.39 µM. For the same compound, the GI50 in assay [7] was 79.3 µM (inactive); in assay [8] it was 56.4 µM (inactive); in assay [9], 26.4 µM (inactive); in [10], 15.6 µM (inactive); in [11], 7.23 µM (inactive); in assay [12], 37.4 µM (inactive). For the same compound, the GI50 was 10.1 µM (inactive) in [13]; 47 µM (inactive) in assay [14]; 34.5 µM (inactive) in [15]; 0.755 µM (active) in assay [16]; > 100 µM (inactive) in assay [17]; 38.7 µM (inactive) in assay [18].

For `CC[C@@]1(O)C(=O)OCc2c1cc1n(c2=O)Cc2c-1nc1ccccc1c2/C=N\NC(=O)CN`, the GI50 in assay [1] is 0.0908 µM (active); in [2] it was 0.488 µM (active); in [3], < 0.0197 µM (active); in [4], 0.131 µM (active); in assay [5], 0.419 µM (active); in assay [6] it was 0.221 µM. Moreover, the GI50 in assay [7] was 0.0533 µM (active); in [8] it was 2.59 µM (inactive); in assay [9], 0.586 µM (active); in [10], 6.14 µM (inactive); in assay [11] it was 1.61 µM (inactive); in [12], 1.57 µM (inactive). Besides, the GI50 in [13] was 0.042 µM (active); in [14], 3.24 µM (inactive); in assay [15] it was 0.147 µM (active); in [16], 0.252 µM (active); in assay [17], 0.0458 µM (active); in [18], 26.1 µM (inactive).

Turning to `CN1CCN(c2ccc3[nH]c(-c4ccc5[nH]c(CCCc6ccc(N(CCCl)CCCl)cc6)nc5c4)nc3c2)CC1`, the GI50 in [1] is > 100 µM (inactive); in [2], > 100 µM (inactive); in assay [3] it was > 100 µM (inactive); in assay [4] it was > 100 µM (inactive); in assay [5], > 100 µM (inactive); in assay [6], > 100 µM. Further, the GI50 in assay [7] was > 100 µM (inactive); in assay [8] it was 13.5 µM (inactive); in assay [9], > 100 µM (inactive); in assay [10], > 100 µM (inactive); in assay [11] it was > 100 µM (inactive); in assay [12], > 100 µM (inactive). In addition, the GI50 in [13], in assay [14], in assay [15], in [16], in assay [17] and in assay [18] was > 100 µM (inactive) throughout.

For the compound `Cc1ccc([N+](=O)[O-])c2c(NCCNC(=O)Cn3ccnc3[N+](=O)[O-])ccnc12`, the GI50 is 34.8 µM (inactive) in [1]; 31.6 µM (inactive) in assay [2]; 44.2 µM (inactive) in assay [3]; 31.8 µM (inactive) in assay [4]; 43.7 µM (inactive) in [5]; > 100 µM in assay [6]. For the same compound, the GI50 in assay [7] is 20.7 µM (inactive); in assay [8], 25.6 µM (inactive); in assay [9], 64.1 µM (inactive); in [10] it was 52.2 µM (inactive); in assay [11] it was 94.6 µM (inactive); in assay [12], 69.5 µM (inactive). In addition, the GI50 in [13] was 28.2 µM (inactive); in [14] it was 35.5 µM (inactive); in assay [15] it was 96.6 µM (inactive); in [16], 17.8 µM (inactive); in assay [17], 38.3 µM (inactive); in assay [18], 88.3 µM (inactive).

Consider `C=CCN(c1cc(OC)c2[nH]c(C(=O)OCC)c(C)c2c1[N+](=O)[O-])S(C)(=O)=O`, for which the GI50 in [1] was 19 µM (inactive); in assay [2] it was 25.8 µM (inactive); in [3], 26.1 µM (inactive); in [4], 34 µM (inactive); in assay [5], 18.2 µM (inactive); in assay [6], 25.6 µM. Further, the GI50 was 35.6 µM (inactive) in assay [7]; 33.7 µM (inactive) in [8]; 15.1 µM (inactive) in [9]; 23.5 µM (inactive) in assay [10]; 24.7 µM (inactive) in [11]; 18.1 µM (inactive) in assay [12]. For the same compound, the GI50 in [13] is 30.3 µM (inactive); in assay [14], 29.3 µM (inactive); in assay [15], 14.6 µM (inactive); in assay [16] it was 16.1 µM (inactive); in [17], 19.6 µM (inactive); in [18], 54.1 µM (inactive).

Regarding `CCN(CC)/[N+]([O-])=N/OS(=O)(=O)N(C)C`, the GI50 is > 100 µM (inactive) in assay [1]; > 100 µM (inactive) in assay [2]; > 100 µM (inactive) in assay [3]; > 100 µM (inactive) in assay [4]; > 100 µM (inactive) in assay [5]; > 100 µM in [6]. For the same compound, the GI50 in assay [7], in assay [8], in assay [9], in assay [10], in [11] and in assay [12] was > 100 µM (inactive) throughout. For the same compound, the GI50 in assay [13], in assay [14], in assay [15], in [16], in [17] and in [18] was > 100 µM (inactive) each time.

Consider `O=C1C2C(c3ccccc3)NC(c3ccccc3)C1C(c1ccccc1)NC2c1ccccc1` (stereo not drawn), for which the GI50 in assay [1] is > 100 µM (inactive); in assay [2], > 100 µM (inactive); in [3], > 100 µM (inactive); in assay [4], > 100 µM (inactive); in assay [5], > 100 µM (inactive); in assay [6] it was > 100 µM. Further, the GI50 in assay [7], in [8], in [9], in assay [10], in assay [11] and in assay [12] was > 100 µM (inactive) throughout. Moreover, the GI50 in [13], in assay [14], in [15], in assay [16], in [17] and in [18] was > 100 µM (inactive) throughout.

In the case of `O=C1OC(c2ccccc2)=N/C1=C\c1ccc(Br)cc1`, the GI50 in assay [1] was > 100 µM (inactive); in assay [2], > 100 µM (inactive); in assay [3] it was > 100 µM (inactive); in [4] it was > 100 µM (inactive); in [5], > 100 µM (inactive); in assay [6], > 100 µM. Also, the GI50 in assay [7], in [8], in [9], in assay [10], in assay [11] and in assay [12] was > 100 µM (inactive) in each case. Besides, the GI50 was > 100 µM (inactive) in [13]; > 100 µM (inactive) in [14]; 96.6 µM (inactive) in assay [15]; > 100 µM (inactive) in [16]; > 100 µM (inactive) in assay [17]; > 100 µM (inactive) in assay [18].

On to `Cc1nn(-c2ccccn2)c2c1C(SC#N)=C(C=O)CC2`, for which the GI50 in assay [1] was 12.4 µM (inactive); in assay [2], 2.29 µM (inactive); in assay [3] it was 16.3 µM (inactive); in assay [4], 5.64 µM (inactive); in assay [5], 16 µM (inactive); in assay [6], 17.4 µM. Moreover, the GI50 in assay [7] is 9.38 µM (inactive); in assay [8], 11.5 µM (inactive); in assay [9] it was 8.07 µM (inactive); in assay [10] it was 16.7 µM (inactive); in assay [11] it was 18.1 µM (inactive); in assay [12], 17.7 µM (inactive). Also, the GI50 is 15.9 µM (inactive) in [13]; 4.85 µM (inactive) in assay [14]; 13.3 µM (inactive) in assay [15]; 15 µM (inactive) in assay [16]; 18.5 µM (inactive) in assay [17]; 1.67 µM (inactive) in assay [18].
